The target of assay [1] is T1, Tyrosinase (Agaricus bisporus, UniProt O42713).
T1 sequence (O42713 whole entry): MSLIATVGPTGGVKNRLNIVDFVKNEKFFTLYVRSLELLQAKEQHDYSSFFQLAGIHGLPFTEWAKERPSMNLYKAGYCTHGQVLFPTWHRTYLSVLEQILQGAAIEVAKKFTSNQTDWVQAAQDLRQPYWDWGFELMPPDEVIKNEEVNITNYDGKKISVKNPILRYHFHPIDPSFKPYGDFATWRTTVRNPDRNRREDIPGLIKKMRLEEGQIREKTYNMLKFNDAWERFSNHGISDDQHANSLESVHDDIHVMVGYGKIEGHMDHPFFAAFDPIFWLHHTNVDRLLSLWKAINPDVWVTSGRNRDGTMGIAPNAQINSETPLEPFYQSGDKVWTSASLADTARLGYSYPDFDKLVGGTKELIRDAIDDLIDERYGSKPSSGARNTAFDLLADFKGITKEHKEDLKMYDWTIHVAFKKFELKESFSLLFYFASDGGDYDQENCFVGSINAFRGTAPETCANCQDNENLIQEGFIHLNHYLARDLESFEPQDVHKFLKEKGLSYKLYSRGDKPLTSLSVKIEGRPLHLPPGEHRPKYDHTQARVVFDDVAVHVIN
Description: Inhibition of mushroom tyrosinase preincubated for 20 mins

In assay [2] the target is T1, Tyrosinase. Description: (§1) Competitive inhibition of mushroom tyrosinase by Lineweaver-Burk plot analysis.
In assay [3] the target is T2, Tyrosinase (Agaricus bisporus) (UniProt O42713).
T2 sequence (whole entry): T1 sequence (O42713 whole entry)
Described as §1.

Activity calls are given as the source filed them. No cut-off for these calls is given here.

Broadly, the IC50 is the concentration at which inhibition is half-maximal. A low value points to greater potency. As a reminder, the Ki is a dissociation constant, usually derived from enzyme kinetics or from competition with a known ligand. Read a high Ki as weaker binding.

In turn, `O=C(OCc1ccc(O)cc1)c1cc(O)c(O)c(O)c1` [4-HYDROXYBENZYL GALLATE] came in with an IC50 on Tyrosinase [1] of 25.7 µM.

On Tyrosinase [2], `O=C(OCc1ccc(O)cc1)c1ccc(O)cc1O` registered an inhibitory constant (Ki) of 1110 nM. This molecule gave an IC50 on Tyrosinase [1] of 4.69 µM.

`O=C(OCc1ccc(O)cc1)c1c(O)cc(O)cc1O` [4-HYDROXYBENZYL 2,4,6-DIHYDROXYBENZOATE]: the result in assay [3] was Active. At Tyrosinase [1], the midpoint of inhibition, the IC50, lay at 8 µM.

Take `O=C(OCc1cccc(O)c1)c1cc(O)cc(O)c1`: the result in assay [3] was Active. The molecule further returned an IC50 at Tyrosinase [1] of 6.11 µM.

The molecule `O=C(OCc1cccc(O)c1)c1cc(O)ccc1O` [3-HYDROXYBENZYL 2,5-DIHYDROXYBENZOATE] gave an IC50 against Tyrosinase [1] of 24.4 µM.

As to `O=C(OCc1ccccc1O)c1cc(O)c(O)c(O)c1`, the IC50 against Tyrosinase [1] is > 100 µM.

As for `O=C(OCc1cccc(O)c1)c1cc(O)c(O)c(O)c1`, half-maximal inhibition against Tyrosinase [1] (IC50) required 11.5 µM.

Consider `O=C(OCc1ccccc1O)c1cc(O)cc(O)c1`, for which the IC50 at Tyrosinase [1] was found to be 19.9 µM.

In turn, `O=C(OCc1ccc(O)cc1)c1cc(O)ccc1O` [4-HYDROXYBENZYL 2,5-DIHYDROXYBENZOATE] yielded an IC50 at Tyrosinase [1] of 12.3 µM. Compared with the last molecule, the IC50 is about 1.6-fold lower.

Take `O=C(OCc1ccccc1O)c1cc(O)ccc1O`: on Tyrosinase [1], the IC50 was > 100 µM.

As to `O=C(OCc1ccc(O)cc1)c1cc(O)cc(O)c1` [4-HYDROXYBENZYL 3,5-DIHYDROXYBENZOATE], the result in assay [3] was Active. This molecule also registered an IC50 against Tyrosinase [1] of 5.84 µM.

On to `O=C(OCc1ccccc1O)c1c(O)cc(O)cc1O`, for which, on Tyrosinase [1], half-maximal inhibition (IC50) was put at 19.9 µM.

At Tyrosinase [1], `O=C(OCc1ccccc1O)c1ccc(O)cc1O` displayed an IC50 of 66.2 µM. This IC50 lies about 3.3-fold higher than the previous one.

As for `O=C(OCc1cccc(O)c1)c1ccc(O)cc1O`, the outcome in assay [3] was Active. The same molecule registered an IC50 at Tyrosinase [1] of 6.23 µM.

Values taken from ChEMBL document CHEMBL1667842, “Benzyl benzoates: New phlorizin analogs as mushroom tyrosinase inhibitors” (Bioorg Med Chem, 2011).
